From patent US12043621B2, “Small molecule inhibitors of Interleukin-4” (Trustees of Boston University, priority 2020, dated 2024)

Test system: >25 other proteins
Assay: SMM binding signatures versus >25 unrelated proteins
Details: compared to SMM binding signatures for >25 other proteins
Source text: [formula] Where SNRi is the SNR value for a given feature, Mdn(SNR) is the median of the SNR values for all features in the subarray, and the MAD(SNR) is the […] absolute deviation of the SNR values for all features in the subarray. Assay positives with an average robust Z score greater than 1.645 (alpha=0.05) on duplicate slides were compared to both a counter screen for the detection antibody and a database representing >25 unique targets screened by SMM against the same chemical library to filter nonspecific binders. DSF

In the case of N#Cc1c(-c2ccc(O)c(O)c2)cc(-c2ccc(F)cc2)nc1N [Compound 1, 2-amino-4-(3,4-dihydroxyphenyl)-6-(4-fluorophenyl)-nicotinonitrile], the SMM binding selectivity is reported as “only bound to IL-4”.
COc1ccc(-c2cc(-c3cccnc3)nc(N)c2C#N)cc1O [Compound 25] was tested, and the SMM binding selectivity was “only bound to IL-4”.

Test system: HEK-Blue IL-4/IL-13 cells
Assay: HEK-Blue IL-4/IL-13 control: compounds alone without IL-4 (SEAP)
Format: cell-based
Details: cells with 100 μM compound, no IL-4
Description: […] HEK-Blue IL-4/IL-13 cells were trypsinized, spun down, and resuspended in DMEM with 10% heat-inactivated FBS, and 100 U/mL-100 μg/mL Pen-Strep at a concentration of 3.125E5/mL. 160 μL of the cell suspension was added to each well of a 96 well plate, avoiding the edges of the plate and equilibrated in an incubator for 1 hour. After 2 hours, 40 μL of the small molecule/IL-4 solution was added to each well. Each measurement was performed in triplicate. Cells were incubated for 20 hours at 37° C./5% CO2. Quanti-Blue was prepared according to manufacture and 160 μL added to each well of a 96 well plate, avoiding edges. 40 μL of cell supernatant was added to each well and then incubated for 3 hours at 37° C. The optical density was then read at 650 nm with a Molecular Devices SpectraMax M5 Microplate Reader. Data was plotted and analyzed in GraphPad Prism 8.

Point of comparison: N#Cc1c(-c2ccc(O)c(O)c2)cc(-c2ccc(F)cc2)nc1N [Compound 1, 2-amino-4-(3,4-dihydroxyphenyl)-6-(4-fluorophenyl)-nicotinonitrile], Abs650 0.0955 ± 0.0072. Against it:
- COc1ccc(-c2cc(-c3cccnc3)nc(N)c2C#N)cc1O [Compound 25] — lower, 0.0648 ± 0.0012

Target: T1, IL-4 (Homo sapiens, UniProt P05112)
T1 construct: purchased Acros Biosystems IL4-H4218; host or cells: HEK-293
T1 sequence (P05112 25-153): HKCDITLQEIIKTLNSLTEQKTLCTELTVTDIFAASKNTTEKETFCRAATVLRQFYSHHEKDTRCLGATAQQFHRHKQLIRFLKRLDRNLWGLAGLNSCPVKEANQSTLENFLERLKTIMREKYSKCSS
Assay: HEK-Blue IL-4/IL-13 cell-based reporter (SEAP) IL-4 inhibition assay
Details: 1 uM; percent activity in HEK-Blue IL-4/IL-13; in %
Description: HEK-Blue IL-4/IL-13 cells were purchased from Invivogen and maintained in DMEM complete with 10% fetal bovine serum, 10 μg/ml of blasticidin and 100 μg/ml of Zeocin, 100 μg/mL Normocin, and 100 U/mL-100 μg/mL Pen-Strep. Cells used for assays were between passages 12 and 18. […] HEK-Blue IL-4/IL-13 cells were trypsinized, spun down, and resuspended in DMEM with 10% heat-inactivated FBS, and 100 U/mL-100 μg/mL Pen-Strep at a concentration of 3.125E5/mL. 160 μL of the cell suspension was added to each well of a 96 well plate, avoiding the edges of the plate and equilibrated in an incubator for 1 hour. After 2 hours, 40 μL of the small molecule/IL-4 solution was added to each well. Each measurement performed in quadruplicate. Cells were incubated for 20 hours at 37° C./5% CO2. Quanti-Blue was prepared according to manufacture and 160 μL added to each well of a 96 well plate, avoiding edges. 40 μL of cell supernatant was added to each well and then incubated for 3 hours at 37° C. The optical density was then read at 650 nm with a Molecular Devices SpectraMax M5 Microplate Reader. Data was plotted and analyzed in GraphPad Prism 8.
HEK-Blue IL-4/IL-13 cells were purchased from Invivogen and maintained in DMEM complete with 10% fetal bovine serum, 10 μg/ml of blasticidin and 100 μg/ml of Zeocin, 100 μg/mL Normocin, and 100 U/mL-100 μg/mL Pen-Strep. Cells used for assays were between passages 12 and 18. Prior to screening small molecules, the SEAP production induced by IL-4 alone was tested in the cells (FIG. 13) and determined to be 0.3 ng/mL. The EC25 for the IL-4 induced SEAP production (0.1 ng/mL final well concentration) was chosen for running small molecule inhibition assays.
For screening small molecules, 25 µL of each molecule (FIG. 9) in DMEM with 4% DMSO was added to 25 μL of 1 ng/ml IL-4 in DMEM and incubated for 2 hours at 37° C. HEK-Blue IL-4/IL-13 cells were trypsinized, spun down, and resuspended in DMEM with 10% heat-inactivated FBS, and 100 U/mL-100 μg/mL Pen-Strep at a concentration of 3.125E5/mL. 160 μL of the cell suspension was added to each well of a 96 well plate, avoiding the edges of the plate and equilibrated in an incubator for 1 hour. After 2 hours, 40 μL of the small molecule/IL-4 solution was added to each well. Each measurement was performed in […]. Cells were incubated for 20 hours at 37° C./5% CO2. Quanti-Blue was prepared according to manufacture and 160 μL added to each well of a 96 well plate, avoiding edges. 40 μL of cell supernatant was added to each well and then incubated for 3 hours at 37° C. The optical density was then read at 650 nm with a Molecular Devices SpectraMax M5 Microplate Reader. Data was plotted and analyzed in GraphPad Prism 8.
HEK-Blue IL-4/IL-13 cells used to screen analogs of compound 52 from ACS Chemical Biology paper (also referred to herein as D9). Assay was run as described in Examples 2 and 3. All compounds were screened at 10 μM, 1 μM, and 250 nM in quadruplicate. The results are depicted in FIGS. 17-21.

Point of comparison: N#Cc1c(-c2cc(O)c(O)c(O)c2)cc(-c2ccc(F)cc2)nc1N [Compound 5], “Activity at 1 uM” value 84.76. Against it:
- COc1ccc(-c2cc(-c3cccc(O)c3)c(C#N)c(=O)[nH]2)cc1 [Compound 43] — higher, 112.2
- COc1ccc(-c2cc(-c3ccccc3)nc(Br)c2C#N)cc1 [Compound 62] — higher, 96.31
- Cc1ccc(-c2cc(-c3ccc(F)cc3)nc(N)c2C#N)s1 [Compound 11] — lower, 69.98
- COc1ccc(-c2cc(C3CCCOC3)c(C#N)c(=O)[nH]2)cc1 (stereo not shown) [Compound 36] — lower, 71.59
- N#Cc1c(-c2ccc(O)cc2)cc(-c2ccc(F)cc2)nc1N [Compound 17] — higher, 99.0184
- COc1ccc(-c2cc(-c3ccccc3)c(C#N)c(S)n2)cc1 [Compound 64] — lower, 17.08
- COc1ccc(-c2cc(-c3ccc(OC)c(O)c3)c(C#N)c(N)n2)cc1 [Compound 30] — lower, 64.45
- COc1ccc(-c2cc(-c3ccc(C)o3)c(C#N)c(=O)[nH]2)cc1 [Compound 37] — higher, 89.04
- COc1ccc(-c2cc(-c3ccc(O)cc3)c(C#N)c(=O)[nH]2)cc1 [Compound 44] — lower, 33.62
- COc1ccc(-c2cc(-c3ccccc3O)c(C#N)c(=O)[nH]2)cc1 [Compound 42] — lower, 33.675
- COc1ccc(-c2cc(-c3ccc4ccccc4c3)c(C#N)c(=O)[nH]2)cc1 [Compound 41] — lower, 62.288
- COc1ccc(-c2cc(-c3ccc(Cl)c(Cl)c3)c(C#N)c(=O)[nH]2)cc1 [Compound 32] — lower, 51.3
- N#Cc1c(-c2ccc(O)c(O)c2)cc(-c2ccc(F)cc2)nc1N [Compound 1, 2-amino-4-(3,4-dihydroxyphenyl)-6-(4-fluorophenyl)-nicotinonitrile] — lower, 71.73

Same assay, conditions: 10 uM; percent activity in HEK-Blue IL-4/IL-13; in %

Point of comparison: COc1ccc(-c2cc(-c3cccc(O)c3)c(C#N)c(=O)[nH]2)cc1 [Compound 43], “Activity at 10 uM” value 35.73. Against it:
- COc1ccc(-c2cc(-c3ccccc3)nc(Br)c2C#N)cc1 [Compound 62] — higher, 38.63
- Cc1ccc(-c2cc(-c3ccc(F)cc3)nc(N)c2C#N)s1 [Compound 11] — higher, 62.48
- COc1ccc(-c2cc(C3CCCOC3)c(C#N)c(=O)[nH]2)cc1 (stereo not shown) [Compound 36] — higher, 68.36
- N#Cc1c(-c2ccc(O)cc2)cc(-c2ccc(F)cc2)nc1N [Compound 17] — higher, 52.77
- COc1ccc(-c2cc(-c3ccccc3)c(C#N)c(S)n2)cc1 [Compound 64] — lower, 16.53
- COc1ccc(-c2cc(-c3ccc(OC)c(O)c3)c(C#N)c(N)n2)cc1 [Compound 30] — lower, 28.76
- N#Cc1c(-c2cc(O)c(O)c(O)c2)cc(-c2ccc(F)cc2)nc1N [Compound 5] — higher, 93.86
- COc1ccc(-c2cc(-c3ccc(C)o3)c(C#N)c(=O)[nH]2)cc1 [Compound 37] — higher, 99.52
- COc1ccc(-c2cc(-c3ccc(O)cc3)c(C#N)c(=O)[nH]2)cc1 [Compound 44] — higher, 39.28
- COc1ccc(-c2cc(-c3ccccc3O)c(C#N)c(=O)[nH]2)cc1 [Compound 42] — lower, −0.3167
- COc1ccc(-c2cc(-c3ccc4ccccc4c3)c(C#N)c(=O)[nH]2)cc1 [Compound 41] — higher, 48.23
- COc1ccc(-c2cc(-c3ccc(Cl)c(Cl)c3)c(C#N)c(=O)[nH]2)cc1 [Compound 32] — higher, 55.85
- N#Cc1c(-c2ccc(O)c(O)c2)cc(-c2ccc(F)cc2)nc1N [Compound 1, 2-amino-4-(3,4-dihydroxyphenyl)-6-(4-fluorophenyl)-nicotinonitrile] — lower, 2.405

Same assay, conditions: Example 2, quadruplicate; read-out: EC50 of IL-4 inhibition in HEK-Blue IL-4/IL-13 cells

Point of comparison: N#Cc1c(-c2ccc(O)c(O)c2)cc(-c2ccc(F)cc2)nc1N [Compound 1, 2-amino-4-(3,4-dihydroxyphenyl)-6-(4-fluorophenyl)-nicotinonitrile], EC50 45.6 µM. Against it:
- COc1ccc(-c2cc(-c3cccnc3)nc(N)c2C#N)cc1O [Compound 25] — 2.1-fold lower, 21.7 µM

Same assay, conditions: Example 3, triplicate; read-out: EC50 of IL-4 inhibition in HEK-Blue IL-4/IL-13 cells

Point of comparison: N#Cc1c(-c2ccc(O)c(O)c2)cc(-c2ccc(F)cc2)nc1N [Compound 1, 2-amino-4-(3,4-dihydroxyphenyl)-6-(4-fluorophenyl)-nicotinonitrile], EC50 40 µM. Against it:
- COc1ccc(-c2cc(-c3cccnc3)nc(N)c2C#N)cc1O [Compound 25] — 5.3-fold lower, 7.6 µM

Same assay, conditions: Table 3; read-out: EC50

Point of comparison: N#Cc1c(-c2ccc(O)c(O)c2)cc(-c2ccc(F)cc2)nc1N [Compound 1, 2-amino-4-(3,4-dihydroxyphenyl)-6-(4-fluorophenyl)-nicotinonitrile], EC50 1.56 µM. Against it:
- COc1ccc(-c2cc(-c3ccc(OC)c(O)c3)c(C#N)c(N)n2)cc1 [Compound 30] — 2.5-fold higher, 3.88 µM

Same assay, conditions: at 50 μM; normalized to IL-4 with vehicle

Point of comparison: N#Cc1c(-c2ccc(O)c(O)c2)cc(-c2ccc(F)cc2)nc1N [Compound 1, 2-amino-4-(3,4-dihydroxyphenyl)-6-(4-fluorophenyl)-nicotinonitrile], “reduction of IL-4 activity” value 88.6%. Against it:
- COc1ccc(-c2cc(-c3cccnc3)nc(N)c2C#N)cc1O [Compound 25] — lower, 84.3%
